The IC50 is the concentration that inhibits the measured activity by half. The term fraction unbound denotes the share of the substance not bound to proteins or other matrix. Read a high fraction unbound as weak binding.

Read-outs that look alike come from different tables or passages of the source. Bounds are passed on as bounds.

From article PMC7997578, “Design, Synthesis, Dynamic Docking, Biochemical Characterization, and in Vivo Pharmacokinetics Studies of Novel Topoisomerase II Poisons with Promising Antiproliferative Activity” (Journal of Medicinal Chemistry, 2020) come the findings set out here.

For one data set, the system named is DU145 cells. The data set can be described thus: cell viability MTT assay, DU145. The format is cell-based, human. The note with it: mean ± SD of two experiments, read-out: DU145 antiproliferative activity IC50. The protocol: The antiproliferative activity of all compounds was evaluated in (i) DU145, an androgen-independent prostate cancer cell line; (ii) HeLa, a cervical cancer cell line; and (iii) A549, a lung adenocarcinoma cell line (Table 1). […] Undoubtedly, this preliminary cytotoxicity data will need further characterization, also in relation to the in vitro activity of these compounds.
Human cancer cell lines A549 (lung adenocarcinoma, ATCC CCL-185), DU-145 (androgen-independent prostate cancer, ATCC HTB-81), and HeLa (cervical carcinoma, ATCC CCL-2) were obtained from ATCC. Cells were routinely grown in minimal essential medium containing Eagle’s salts and L-glutamine supplemented with 10% heat-inactivated FBS in a humidified atmosphere of 5% CO2 at 37 °C. To assess the antiproliferative activity of the compounds, cells were seeded at a density of 2500 cells/well (HeLa) or 5000 cells/well (A549, DU-145) in 96-well plates, and cell viability was measured using the MTT assay as described previously.[39] Values are reported as the mean ± SD of two independent experiments.

A short description of data set [1]: plasma protein binding (rapid equilibrium dialysis), mouse. The format is in vitro ADME. The note with it: pH 7.4. On the procedure:
3. Aqueous t herm odynam ic solu bili ty
The thermodynamic solubility of 3f was determined by addition of Phosphate Buffered Saline (PBS) at pH 7. 4 to an exces s of solid compound.
The assay was performed by incubation of an aliquot of 2. 5mg of test compound in 500µL of PBS at pH 7. 4. The suspension was shaken at 300 RPM for 24h at 25°C. At the end of the incubation period, the saturated solution was filtered and analyzed by UPLC/MS for the quantification of dissolved compound (in µM) by UV at a specific wavelength ( λmax of the test compound). The analyses were performed on a Waters ACQUITY UPLC/MS SQD system equipped with an ESI ion source. The analyses were run on an ACQUITY UPLC BEH C 18 column (50x2. 1mmI D, particle size 1. 7µm) with a VanGuard BEH C 18 pr e-column (5x2. 1mmID, particle size 1. 7µm), using H 2O + 0. 1% HCOOH (A) and CH 3CN + 0. 1% HCOOH (B) as mobile phase.
4. Plasm a Protei n Bindi ng
The assay was conducted in triplicate in human and mouse plasma. An appropriate volume of plasma was spiked with a known amount of 10mM DMSO stock solution of the test compound, thus reaching the incubation concentrations of 0. 5, 1 and 5 µM. […] At this point, the supernatants were ready for injections in the UPLC -MS/ MS system. […] Plasma protein binding was calculated applying appropriate corrections to compensate for dilutions during sampling.

With `O=C(Nc1cccc(OC(F)(F)F)c1)c1c(O)n(-c2ccccc2)c(=S)n(-c2ccccc2)c1=O` [3f, 6-Hydroxy-4-oxo-1,3-diphenyl-2-thioxo-N-(3-(trifluoromethoxy)phenyl)-1,2,3,4-tetrahydropyrimidine-5-carboxamide], the half-inhibitory concentration (IC50) is 4.7 ± 0.1 µM in the data set on DU145 cells (DU145 prostate cancer cells) and < 5 µM in the data set on DU145 cells (Homo sapiens, DU-145, DU145 prostate cancer cells). In addition, the fraction unbound at 3 h in data set [1] is < 0.01.
